Calls of active or inactive are those of the source. The rule behind the calls is not given here.
Columns and labels:
[1] = tested on: SW-620; test: Cytotoxicity against human SW620 cells assessed inhibition of cell growth incubated for 72 hrs by MTT assay; assay type: functional, cell-based; settings: SW-620, 72 h
[2] = tested on: A549; test: Cytotoxicity against human A549 cells assessed inhibition of cell growth incubated for 72 hrs by MTT assay; assay type: functional, cell-based; settings: A549, 72 h
[3] = tested on: MCF7; test: Cytotoxicity against human MCF7 cells assessed inhibition of cell growth incubated for 72 hrs by MTT assay; assay type: functional, cell-based; settings: MCF7, 72 h
[4] = Selectivity index, ratio of IC50 for cytotoxicity against human NHDF cells to IC50 for cytotoxicity against human EJ-28 cells
[5] = Selectivity index, ratio of IC50 for cytotoxicity against human NHDF cells to IC50 for cytotoxicity against human MCF7 cells; assay type: toxicity, cell-based; settings: NHDF cells and MCF7 cells, read-out: Ratio IC50
[6] = tested on: SW-620; test: Antiproliferative activity against human SW620 cells assessed as reduction in cell viability at 20 uM measured for 72 hrs by MTT assay; assay type: functional, cell-based
[7] = tested on: MCF7; test: Antiproliferative activity against human MCF7 cells assessed as reduction in cell viability at 20 uM measured for 72 hrs by MTT assay; assay type: functional, cell-based
[8] = tested on: EJ-28; test: Antiproliferative activity against human EJ-28 cells assessed as reduction in cell viability at 20 uM measured for 72 hrs by MTT assay; assay type: functional, cell-based
[9] = tested on: HT-1080; test: Cytotoxicity against human HT-1080 cells assessed inhibition of cell growth incubated for 72 hrs by MTT assay; assay type: functional, cell-based; settings: HT-1080, 72 h
[10] = Selectivity index, ratio of IC50 for cytotoxicity against human NHDF cells to IC50 for cytotoxicity against human A549 cells; assay type: toxicity, cell-based; settings: NHDF cells and A549 cells, read-out: Ratio IC50
[11] = Selectivity index, ratio of IC50 for cytotoxicity against human NHDF cells to IC50 for cytotoxicity against human HT-1080 cells
[12] = Cytotoxicity against human NHDF cells assessed inhibition of cell growth incubated for 72 hrs by MTT assay; assay type: toxicity, cell-based
[13] = Selectivity index, ratio of IC50 for cytotoxicity against human NHDF cells to IC50 for cytotoxicity against human SW620 cells
[14] = tested on: EJ-28; test: Cytotoxicity against human EJ-28 cells assessed inhibition of cell growth incubated for 72 hrs by MTT assay; assay type: functional, cell-based; settings: EJ-28, 72 h
[15] = tested on: HT-1080; test: Antiproliferative activity against human HT-1080 cells assessed as reduction in cell viability at 20 uM measured for 72 hrs by MTT assay; assay type: functional, cell-based
[16] = tested on: A549; test: Antiproliferative activity against human A549 cells assessed as reduction in cell viability at 20 uM measured for 72 hrs by MTT assay; assay type: functional, cell-based

Row | SMILES | IC50 [1] | IC50 [2] | IC50 [3] | Ratio IC50 [4] | selectivity ratio [5] | Activity [6] | Activity [7] | Activity [8] | IC50 [9] | selectivity ratio [10] | Ratio IC50 [11] | IC50 at 72 h [12] | Ratio IC50 [13] | IC50 [14] | Activity [15] | Activity [16]
1 | Cc1ccc(/C=C/c2cc(-c3ccccc3O)n(-c3ccccc3)n2)s1 | 16.2 µM | 14.5 µM | 12.6 µM | 1.1 | 1.1 | Active | Active | Active | 14.2 µM | 1.1 | 1.1 | 17.9 µM | 1.1 | 11 µM | Active | Active
2 | Oc1ccc(Cl)cc1-c1cc(/C=C/c2cccs2)nn1-c1ccccc1 | 19 µM | 17.1 µM | 5.5 µM | 2 | 2 | Active | Active | Active | 19.6 µM | 2 | 2 | 39.6 µM | 2 | 11.6 µM | Active | Active
3 | COc1cc(/C=C/c2cc(-c3ccccc3O)n(-c3ccccc3)n2)cc(OC)c1OC | 7.6 µM | 14.6 µM | 10.4 µM | >3.4 | > 3.4 | Active | Active | Active | 14.1 µM | > 3.4 | >3.4 | > 50 µM | >3.4 | 12.3 µM | Active | Active
4 | Oc1ccc(Cl)cc1-c1cc(/C=C/c2ccc(Cl)c(Cl)c2)nn1-c1ccccc1 | 19.2 µM | 20.2 µM | 15 µM | 2 | 2 | Active | Active | Active | 17.8 µM | 2 | 2 | 40.2 µM | 2 | 4.4 µM | Active | Active
5 | COc1ccc(/C=C/c2cc(-c3cc(Cl)ccc3O)n(-c3ccccc3)n2)cc1 | 19.8 µM | 20.9 µM | 12.1 µM | 2.2 | 2.2 | Active | Active | Active | 17.2 µM | 2.2 | 2.2 | 47 µM | 2.2 | 14.3 µM | Active | Active
6 | COc1ccc(/C=C/c2cc(-c3ccccc3O)n(-c3ccccc3)n2)cc1 | 7.9 µM | 20.8 µM | 13 µM | >2.4 | > 2.4 | Active | Active | Active | 14.7 µM | > 2.4 | >2.4 | > 50 µM | >2.4 | 12.9 µM | Active | Active
7 | Oc1ccccc1-c1cc(/C=C/c2ccc(Cl)s2)nn1-c1ccccc1 | 16.3 µM | 21.1 µM | 14.5 µM | 1.1 | 1.1 | Active | Active | Active | 17.3 µM | 1.1 | 1.1 | 18.5 µM | 0.9 | 13.6 µM | Active | Active
8 | Oc1ccc(Cl)cc1-c1cc(/C=C/c2ccc(Cl)s2)nn1-c1ccccc1 | 10.4 µM | 13.3 µM | 8.7 µM | 1.4 | 1.4 | Active | Active | Active | 13.5 µM | 1.4 | 1.4 | 19.2 µM | 1.4 | 10.1 µM | Active | Active
9 | Cc1ccc(/C=C/c2cc(-c3cc(Cl)ccc3O)n(-c3ccccc3)n2)s1 | 23 µM | 22.7 µM | 11.1 µM | 1.7 | 1.7 | Active | Active | Active | 21.7 µM | 1.7 | 1.7 | 39.4 µM | 1.7 | 8.6 µM | Active | Active
10 | O=c1[nH]cc(F)c(=O)[nH]1 [FLUOROURACIL] | 32.5 µM | 7.6 µM |  | 1.5 |  |  |  |  | 6 µM |  | 1.5 | > 50 µM | 1.5 | 11.4 µM |  | 
11 | COc1cc(/C=C/c2cc(-c3cc(Cl)ccc3O)n(-c3ccccc3)n2)cc(OC)c1OC | 4.4 µM | 9.4 µM | 5.9 µM | 3.9 | 3.9 | Active | Active | Active | 8.9 µM | 3.9 | 3.9 | 39.6 µM | 3.9 | 10.1 µM | Active | Active
12 | COc1cccc(/C=C/c2cc(-c3cc(Cl)ccc3O)n(-c3ccccc3)n2)c1 | 19.5 µM | 16.5 µM | 10.9 µM | 2.3 | 2.3 | Active | Active | Active | 17.4 µM | 2.3 | 2.3 | 45.6 µM | 2.3 | 8.6 µM | Active | Active
13 | Oc1ccccc1-c1cc(/C=C/c2cccs2)nn1-c1ccccc1 | 11.9 µM | 18.5 µM | 9.1 µM | 1 | 1 | Active | Active | Active | 12.8 µM | 1 | 1 | 19.2 µM | 1 | 14.3 µM | Active | Active
14 | Oc1ccccc1-c1cc(/C=C/c2ccc(Cl)c(Cl)c2)nn1-c1ccccc1 | 18.6 µM | 21.5 µM | 18.1 µM | 2 | 2 | Active | Active | Active | 22.2 µM | 2 | 2 | 43.5 µM | 2 | 15.9 µM | Active | Active
15 | COc1cccc(/C=C/c2cc(-c3ccccc3O)n(-c3ccccc3)n2)c1 | 22.1 µM | 22.8 µM | 16.2 µM | >2.2 | > 2.2 | Active | Active | Active | 20 µM | > 2.2 | >2.2 | > 50 µM | >2.2 | 14.3 µM | Active | Active
16 | Oc1ccc(Cl)cc1-c1cc(/C=C/c2cccc(Cl)c2)nn1-c1ccccc1 | 8.8 µM | 13.3 µM | 8.1 µM | 1.2 | 1.2 | Active | Active | Active | 12.4 µM | 1.2 | 1.2 | 16.2 µM | 1.2 | 3.7 µM | Active | Active
17 | COc1ccc(/C=C/c2cc(-c3ccccc3O)n(-c3ccccc3)n2)cc1OC | 18.5 µM | 19.2 µM | 13 µM | >2.6 | > 2.6 | Active | Active | Active | 15.9 µM | > 2.6 | >2.6 | > 50 µM | >2.6 | 18.6 µM | Active | Active

Source: ChEMBL document CHEMBL5360581, “Discovery of a novel dual functional phenylpyrazole-styryl hybrid that induces apoptotic and autophagic cell death in bladder cancer cells” (Eur J Med Chem, 2023)
